In patent publication US12187758B2 (ROME Therapeutics, Inc., priority 2022, dated 2025):
Where two headings read alike, the source gives them in different places.

Key:
[1] = system: THP1-Dual KO-TREX1 cells; assay: THP1 TREX1 KO inhibition assay, combination dosing; format: cell-based; settings: for EC50: Homo sapiens, THP1-Dual, read-out: EC50 of Compound 2
Description: Exemplary compounds were tested to determine the effect of combined dosing of two compounds on the type 1 interferon response in THP1 Dual TREX1 KO cells treated with 5-aza-2′-deoxycytidine. Assay procedures and results are described below.
THP1 Dual TREX1 KO cells were purchased from InvivoGen. The THP1-Dual™ KO-TREX1 cells were cultured in RPMI 1640, 10% heat-inactivated fetal bovine serum, 25 mM HEPES, 10 μg/mL blasticidin, and 100 μg/mL Zeocin. THP1-Dual™ KO-TREX1 cells were treated with a dose titration of test compound in the presence of 1 μM 5-aza-2′-deoxycytidine (Sigma, cat #189825). Type 1 Interferon and cell viability were assessed after five days of treatment.
Stock solution of test compounds stampidine and Compound 2 were prepared in DMSO followed by a three-fold dilution in DMSO. The plate was prepared with a matrix of test compound concentrations, with stampidine on the y-axis (final concentrations 3 μM to 0.0003 μM) and Compound 2 on the x-axis (final concentrations 0.3 μM to 0.00003 μM). Additional 50× dilution was prepared in cell culture media for each dilution. 10 μL of diluted test compound was then added to a 384-well plate.
THP1-Dual™ KO-TREX1 cells were treated with 1 μM 5-aza-2′-deoxycytidine. THP1-Dual™ KO-TREX1 cells (50 μL) were added to each well of the 384-well plate containing test compound titration at 10,000 cells/well. Cells were incubated at 37° C., 5% CO2 in a humidified incubator for five days. On day five, 20 μL of cell supernatant was transferred to a 384-well, white-walled plate, followed by addition to each well of 50 μL of QUANTI-LUC solution containing stabilizer. Luminescence was detected on a plate reader according to manufacturer's instructions. Percent inhibition of interferon was calculated using the following analysis: (Average DMSO-Sample)/(Average DMSO-Average 30 μM stampidine)*100.
The remaining cells were assessed for cell viability by adding 30 μl of CellTiter-Glo (Promega, G9683) solution to each well, and placed on a shaker for 10 minutes at room temperature. Luminescence was detected on a plate reader, according to manufacturer's instructions. Percent inhibition of cell viability using CellTiter-Glo was calculated using the following analysis: (Average DMSO−Sample)/(Average DMSO−Average 20 μM viability control reagent)*100.
Combination analysis was performed using the Bivariate Response to Additive Interacting Doses (BRAID) according to Twarog, N. R., et al. Scientific Reports 6:25523 (DOI: 10.1038/srep25523). The best BRAID fit was determined to be k 2.00 (0.583-3.64), where k>0 denotes synergy, k=0 denotes additivity, and k<0 denotes antagonism. Potentiation modeling curves are provided for potentiation of Compound 2 at four concentrations of stampidine (FIG. 7A) and for potentiation of stampidine at four concentrations of Compound 2 (FIG. 7B).

[2] = system: THP1-Dual KO-TREX1 xenograft tumors; assay: Altering IFN production in THP1 TREX1 KO xenografts; format: in vivo, CB-17 SCID female mice; settings: decitabine 5 mg/kg IP, test compound 10, 30, or 100 mg/kg PO once daily for 4 days; tumors 24 h post-last dose; FIG. 6
Description: Exemplary compounds 2, 25 and 40 were tested for their ability to alter IFN levels in THP1-Dual™ KO-TREX1 xenografts in mice. Assay procedures are described below.
CB-17 SCID female mice were inoculated subcutaneously with 10 million THP1-Dual™ KO-TREX1 cells in 200 μl PBS with Matrigel (1:1) and grouped when tumor volume reached 350-400 mm^3. Mice bearing THP1-Dual™ KO-TREX1 xenograft tumors were then separated into 5 groups. Three groups were administered: (1) decitabine (DAC) at 5 mg/kg IP, once daily, for 4 days, and (2) test compound at 10, 30, or 100 mg/kg, PO, once daily, for 4 days. One group was administered decitabine (DAC) at 5 mg/kg IP, once daily, for 4 days, and the test compound vehicle control. The final group was administered the vehicle control from both the test compound and the vehicle control from decitabine. Decitabine is formulated in sterile PBS, pH 7.4, and Compound 2, 25, and 40 were formulated in 20% PEG400 in PBS.
Tumors were harvested 24 h post-last dose administered on day 4, ground in PBS at 50 Hz for 5 min, and kept on ice for 30 min while being vortexed every 5 min. […] Equal amounts of proteins were added to 96-well black plates, and luciferase signal was measured using the QUANTI-Luc™ detection medium according to manufacturer's instructions. Luminescence was measured using the EnVision® 2105 Multimode Plate Reader. […]

[3] = system: THP1-Dual KO-TREX1 xenograft tumors; assay: Altering IFN production in THP1-Dual KO-TREX1 mouse xenografts (Compound 67); format: in vivo, CB-17 SCID female mice; settings: decitabine 5 mg/kg SC, compound 0.3-100 mg/kg PO once daily for 5 days; tumors 4 h post-last dose; FIG. 9
Description: Exemplary Compound 67 was tested for its ability to alter IFN levels in THP1-Dual™ KO-TREX1 xenografts in mice. Assay procedures are described below.
CB-17 SCID female mice were inoculated subcutaneously with 10 million THP1-Dual™ KO-TREX1 cells in 200 μl PBS with Matrigel (1:1) and grouped at N=5 per treatment per sampling timepoint when tumor volume reached an average of 340 mm^3. Six groups were co-administered: (1) decitabine (DAC) at 5 mg/kg SC, once daily, for 5 days, and (2) test compound 67 at one of six doses (0.3 mg/kg PO, 1 mg/kg PO, 3 mg/kg PO, 10 mg/kg PO, 30 mg/kg PO, 100 mg/kg PO) once daily, for 5 days. Two additional groups were administered (1) decitabine and test compound vehicle control SC+PO, once daily, for 5 days, and (2) decitabine at 5 mg/kg SC, once daily, for 5 days. […]
Tumors were harvested 4 h post-last dose administered on day 5, grinded in PBS at 50 Hz for 5 min, kept on ice for 30 min while being vortexed every 5 min. […] Equal amounts of proteins were added to 96-well black plates, and luciferase signal was measured using the QUANTI-Luc™ detection medium according to manufacturer's instructions. Luminescence was measured using the EnVision® 2105 Multimode Plate Reader.
Experimental results are depicted in FIG. 9. […] In FIG. 9, IFN signal was measured in tumors harvested from mice 4 hours after the final decitabine and test compound dosing on day 5.

SMILES | EC50 ([1]; Stampidine 0 μM) | EC50 ([1]; Stampidine 0.001 μM) | EC50 ([1]; Stampidine 0.01 μM) | EC50 ([1]; Stampidine 0.1 μM) | BRAID fit k (k>0 denotes synergy) ([1]; combination of stampidine and Compound 2, 1 μM 5-aza-2′-deoxycytidine, five days) | inhibition of DAC-induced IFN signal in THP1 tumors [2] | inhibition of DAC-induced IFN signal in THP1 tumors [3]
Nc1ccn([C@H]2C[C@H](O)[C@](CO)(CCl)O2)c(=O)n1 [Compound 2, 4-amino-1-((2R,4S,5R)-5-(chloromethyl)-4-hydroxy-5-(hydroxymethyl)tetrahydrofuran-2-yl)pyrimidin-2(1H)-one] | 40 nM | 33.5 nM | 20.3 nM | 0.15 nM | 2.00 (0.583-3.64) | potent inhibition of DAC-induced IFN signal | 
Nc1ccn([C@@H]2O[C@@](CO)(CCl)[C@@H](O)[C@@H]2F)c(=O)n1 [Compound 40, 4-amino-1-((2R,3S,4R,5R)-5-(chloromethyl)-3-fluoro-4-hydroxy-5-(hydroxymethyl)tetrahydrofuran-2-yl)pyrimidin-2(1H)-one] |  |  |  |  |  | potent inhibition of DAC-induced IFN signal | 
Nc1nc(=O)n([C@@H]2O[C@@](CO)(CCl)[C@@H](O)[C@@H]2F)cc1F [Compound 67, 4-amino-1-[(2R,3S,4R,5R)-5-(chloromethyl)-3-fluoro-4-hydroxy-5-(hydroxymethyl)oxolan-2-yl]-5-fluoropyrimidin-2-one] |  |  |  |  |  |  | dose-response inhibition of DAC-induced IFN signal
